From patent US12551482B2, “Aurora kinase inhibitors” (The Regents of the University of California, priority 2013, dated 2026)
Where two headings read alike, the source gives them in different places.

Columns and labels:
GI-ME-N = assay: Cancer cell line profiling, Genomics of Drug Sensitivity Project
A431 = assay: as above; conditions: Homo sapiens, A-431, read-out: CD532 EC50 (uM)
SK-MEL-1 = assay: as above; conditions: Homo sapiens, SK-MEL-1, read-out: CD532 EC50 (uM)
JHH-1 = assay: as above; conditions: JHH1, read-out: CD532 EC50 (uM)
Hep 3B2.1-7 = assay: as above; conditions: read-out: CD532 EC50 (uM)
LB771-HNC = assay: as above; conditions: read-out: CD532 EC50 (uM)
WM35 = assay: as above; conditions: WM35, read-out: CD532 EC50 (uM)
MZ2-MEL. = assay: as above; conditions: read-out: CD532 EC50 (uM)
CAL-62 = assay: as above; conditions: Homo sapiens, CAL-62, read-out: CD532 EC50 (uM)
SCC-4 = assay: as above; conditions: Homo sapiens, SCC-4, read-out: CD532 EC50 (uM)
P-Histone H3 (S10) = assay: Dose response immunoblot for phosphorylation of Histone H3 (S10) in MYCN-amplified neuroblastoma cell lines; format: cell-based; conditions: FIGS. 1D and 7
Method: Neuroblastoma tumor cell lines were obtained from the University of California San Francisco Cell Culture Facility (Kelly, SK-N-BE2, and SH-EP). SMS-KCN, SHEP MYCN^wt and MYCN^T58A/S62A cells were obtained. All cells were grown in RPMI with 10% FBS. Neuroblastoma cells were harvested and lysed with Cell Signaling Lysis buffer+1% SDS, sonicated and supernatants boiled in LDS sample buffer (Invitrogen). Western blots were performed as described previously (Chanthery et al., 2012), with primary antibodies to MYCN (ab24193, Abcam), Histone H3, P-Histone H3 (S10), Aurora A (Cell signaling), and GAPDH (Millipore). Western blot quantitation performed with ImageJ software.

A101D = assay: Cancer cell line profiling, Genomics of Drug Sensitivity Project; conditions: Homo sapiens, read-out: CD532 EC50 (uM)
RPMI 2650 = assay: as above; conditions: Homo sapiens, RPMI-2650, read-out: CD532 EC50 (uM)
Detroit 562 = assay: as above; conditions: Homo sapiens, Detroit 562, read-out: CD532 EC50 (uM)
KP-N-YS = assay: as above; conditions: read-out: CD532 EC50 (uM)
KON = assay: as above; conditions: read-out: CD532 EC50 (uM)
HSC-2 = assay: as above; conditions: Homo sapiens, HSC-2, read-out: CD532 EC50 (uM)
M-14 = assay: as above; conditions: Homo sapiens, M14, read-out: CD532 EC50 (uM)
SK-HEP-1 = assay: as above; conditions: Homo sapiens, SK-HEP1, read-out: CD532 EC50 (uM)
CP50-MEL-B = assay: as above; conditions: read-out: CD532 EC50 (uM)
OVMIU = assay: as above; conditions: read-out: CD532 EC50 (uM)
FU97 = assay: as above; conditions: Fu97, read-out: CD532 EC50 (uM)
BICR 10 = assay: as above; conditions: read-out: CD532 EC50 (uM)
WM-115 = assay: as above; conditions: Homo sapiens, WM-115, read-out: CD532 EC50 (uM)
Aurora A protein = biological target: T1, Aurora A protein (Homo sapiens, UniProt O14965); assay: Dose response immunoblot for Aurora A protein in MYCN-amplified neuroblastoma cell lines; format: cell-based; conditions: across cell lines (FIGS. 1D and 7)
T1 construct: endogenous in cells; host or cells: SK-N-BE(2), SMS-KCN, Kelly neuroblastoma cells
T1 sequence (O14965 whole entry): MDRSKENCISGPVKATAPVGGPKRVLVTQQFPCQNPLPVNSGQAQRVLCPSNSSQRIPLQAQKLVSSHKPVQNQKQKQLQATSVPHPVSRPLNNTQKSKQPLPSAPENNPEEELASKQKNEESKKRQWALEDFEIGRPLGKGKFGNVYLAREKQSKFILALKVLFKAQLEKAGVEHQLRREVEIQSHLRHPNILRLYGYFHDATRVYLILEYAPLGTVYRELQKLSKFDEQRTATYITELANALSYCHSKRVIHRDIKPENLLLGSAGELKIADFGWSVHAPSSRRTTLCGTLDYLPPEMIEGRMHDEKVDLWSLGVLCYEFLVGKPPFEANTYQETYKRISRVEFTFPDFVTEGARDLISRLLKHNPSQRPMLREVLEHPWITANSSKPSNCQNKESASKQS
Method: Neuroblastoma tumor cell lines were obtained from the University of California San Francisco Cell Culture Facility (Kelly, SK-N-BE2, and SH-EP). SMS-KCN, SHEP MYCN^wt and MYCN^T58A/S62A cells were obtained. All cells were grown in RPMI with 10% FBS. Neuroblastoma cells were harvested and lysed with Cell Signaling Lysis buffer+1% SDS, sonicated and supernatants boiled in LDS sample buffer (Invitrogen). […] Western blot quantitation performed with ImageJ software.

BFTC-909 = assay: Cancer cell line profiling, Genomics of Drug Sensitivity Project; conditions: Homo sapiens, BFTC-909, read-out: CD532 EC50 (uM)
DOK = assay: as above; conditions: read-out: CD532 EC50 (uM)
COLO-829 = assay: as above; conditions: Homo sapiens, COLO-829, read-out: CD532 EC50 (uM)
RF-48 = assay: as above; conditions: RF48, read-out: CD532 EC50 (uM)

O=C(Nc1ccc(Nc2nccc(Nc3cc(C4CCCC4)[nH]n3)n2)cc1)Nc1cccc(C(F)(F)F)c1 [CD532, 1-(4-((4-((5-cyclopentyl-1H-pyrazol-3-yl)amino)pyrimidin-2-yl)amino)phenyl)-3-(3-(trifluoromethyl)phenyl)urea]
EC50 (GI-ME-N; read-out: CD532 EC50 (uM), GI-ME-N cell line, Nervous System): 0.428 µM
EC50 (GI-ME-N; read-out: CD532 EC50, GI-ME-N cell line, Nervous System): 0.812 µM
EC50 (A431): 0.364 µM
EC50 (SK-MEL-1): 0.649 µM
EC50 (JHH-1): 0.295 µM
EC50 (Hep 3B2.1-7): 0.877 µM
EC50 (LB771-HNC): 0.916 µM
EC50 (WM35): 0.367 µM
EC50 (MZ2-MEL.): 0.434 µM
EC50 (CAL-62): 0.589 µM
EC50 (SCC-4): 0.884 µM
phosphorylation of Histone H3 at S10, dose response (P-Histone H3 (S10)): behaves similarly to MLN8237 with regard to Histone H3 phosphorylation
EC50 (A101D): 0.429 µM
EC50 (RPMI 2650): 0.412 µM
EC50 (Detroit 562): 1.25 µM
EC50 (KP-N-YS): 0.27 µM
EC50 (KON): 4.15 µM
EC50 (HSC-2): 2.15 µM
EC50 (M-14): 0.972 µM
EC50 (SK-HEP-1): 1.6 µM
EC50 (CP50-MEL-B): 0.323 µM
EC50 (OVMIU): 0.869 µM
EC50 (FU97): 0.545 µM
EC50 (BICR 10): 4.27 µM
EC50 (WM-115): 0.412 µM
Aurora A protein level (Aurora A protein): downregulated Aurora A protein across cell lines (at higher concentrations)
EC50 (BFTC-909): 1.51 µM
EC50 (DOK): 0.512 µM
EC50 (COLO-829): 0.796 µM
EC50 (RF-48): 0.903 µM
